In BindingDB's records for doi:10.7270/Q2HX1B3F (The Scripps Research Institute Molecular Screening Center, 2007) one finds IC50 data, which are given here for eight molecules.

The target in this test is Collagenase 3 (Homo sapiens, UniProt P45452). Nature of the test: inhibition of collagenase 3 (MMP13) activity – biochemical, autofluorescent compounds, fluorescence, dose response (AID 769).

What is called IC50 is the midpoint of a concentration-inhibition curve. `O=S(=O)(Nc1ccc(-c2nc3cccnc3s2)cc1)c1cccs1` registered an IC50 above 39.8 µM.
With `CCOC(=O)CSc1nc(-c2ccc3c(c2)OCO3)ccc1C#N` [2-[[6-(1,3-benzodioxol-5-yl)-3-cyano-2-pyridinyl]thio]acetic acid ethyl ester] the figure was above 39.8 µM.
To `COc1ccc(-c2ccc(-c3noc(-c4ccccc4C)n3)c(OC)n2)cc1` [3-(2-methoxy-6-(4-methoxyphenyl)pyridin-3-yl)-5-o-tolyl-1,2,4-oxadiazole] belongs 3.97 µM; to `Oc1ccc(/N=C/c2ccc(-c3cccs3)s2)cc1` [4-[(5-thiophen-2-yl-2-thiophenyl)methylideneamino]phenol], 1.68 µM; to `COc1cc(OC)cc(-c2nnc(Nc3nc4c(F)cccc4s3)o2)c1` [5-(3,5-dimethoxyphenyl)-N-(4-fluorobenzo[d]thiazol-2-yl)-1,3,4-oxadiazol-2-amine], 3.52 µM.
To `Fc1cccc2sc(Nc3nnc(-c4ccccc4)o3)nc12` [(4-fluoro-1,3-benzothiazol-2-yl)-(5-phenyl-1,3,4-oxadiazol-2-yl)amine] belongs above 39.8 µM.
As to `COc1cccc(-c2nnc(Nc3nc4c(F)cccc4s3)o2)c1` [(4-fluoro-1,3-benzothiazol-2-yl)-[5-(3-methoxyphenyl)-1,3,4-oxadiazol-2-yl]amine], the IC50 was above 39.8 µM.
With `Cc1nn(-c2ccccc2)c2sc(-c3nnc(S)o3)cc12` [MLS000043319] the figure was 0.883 µM.
